# Experimental data: patent publication US20240122180A1, “FUNGICIDAL HALOMETHYL KETONES AND HYDRATES AND THEIR MIXTURES” (FMC Corporation, priority 2020, published 2024)
# Marks after values point to notes of the source that are not given here.
# How the values were obtained:
# Assay type in all cases: in vivo
# [1] = test system: Blumeria graminis f. sp. tritici (the causal agent of wheat powdery mildew); assay: Test E: preventive spray on wheat seedlings, visual disease rating (100 = 100% control; * 50 ppm, ** 10 ppm, *** 250 ppm); settings: 100 = 100% disease control; for Test E disease control rating / pest or weed control at 250 ppm: 250 ppm test suspension
# From the text: (§1) General protocol for preparing test suspensions for Tests A-E: the test compounds were first dissolved in acetone in an amount equal to 3% of the final volume and then suspended at the desired concentration (in ppm) in acetone and purified water (50/50 mix by volume) containing 250 ppm of the surfactant […] (polyhydric alcohol esters). The resulting test suspensions were then used in Tests A-E.
# The test suspension was sprayed to the point of run-off on wheat seedlings. The following day the seedlings were inoculated with a spore dust of Blumeria graminis f. sp. tritici, (also known as Erysiphe graminis f. sp. tritici, the causal agent of wheat powdery mildew) and incubated in a growth chamber at 20° C. for 8 days, after which time visual disease ratings were made.
# (§2) Results for Tests A-E are given in Table A. In the Table, a rating of 100 indicates 100% disease control and a rating of 0 indicates no disease control (relative to the controls). An asterisk “*” or a double asterisk “**” or a triple asterisk “***” next to the rating value indicates a 50 ppm, 10 ppm and 250 ppm test suspension was used, respectively. A dash (-) indicates the compound was not tested.
# [2] = test system: Zymoseptoria tritici (the causal agent of wheat leaf blotch); assay: Test D: preventive spray on wheat seedlings, disease rating (100 = 100% control; * 50 ppm, ** 10 ppm, *** 250 ppm); settings: 250 ppm test suspension, 100 = 100% disease control; for pest or weed control at 250 ppm: Zymoseptoria tritici
# From the text: as §1
# The test solution was sprayed to the point of run-off on wheat seedlings. The following day the seedlings were inoculated with a spore suspension of Zymoseptoria tritici (the causal agent of wheat leaf blotch) and incubated in a saturated atmosphere at 24° C. for 48 h, and then moved to a growth chamber at 20° C. for 17 days, after which time disease ratings were made.
# as §2
# [3] = test system: Puccinia recondita f. sp. tritici (the causal agent of wheat leaf rust); assay: Test B: preventive spray on wheat seedlings, disease rating (100 = 100% control; * 50 ppm, ** 10 ppm, *** 250 ppm); settings: 100 = 100% disease control
# Method in brief: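 Preventive test: Puccinia recondita f. sp. tritici spores were inoculated one day after run-off spraying of wheat seedlings with test suspension (acetone/water 50/50, 250 ppm PEG400). After 24 h in saturated air and 6 days in a growth chamber, both at 20° C, control was scored 0–100 versus untreated plants.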
# [4] = test system: Phakopsora pachyrhizi (the causal agent of Asian soybean rust); assay: Test A: preventive spray on soybean seedlings, visual disease rating (100 = 100% control; * 50 ppm, ** 10 ppm, *** 250 ppm); settings: 100 = 100% disease control
# Method in brief: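 Preventive test: one day after spraying compound (acetone/water suspension, 250 ppm PEG400), seedlings received rust spore inoculum, 24 h in saturated air then 8 days in growth chamber, both at 22 °C. Disease control scored visually, 100 = complete, 0 = none, relative to untreated controls.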
# [5] = test system: Phakopsora pachyrhizi (the causal agent of Asian soybean rust); assay: Test F: Compound 32 or 64 alone and in mixtures on soybean seedlings, observed (Obsd) and Colby expected (Exp) disease control; settings: for pest or weed control at 37.333 ppm: cyproconazole 37.333 ppm alone; for pest or weed control at 64.883 ppm: cyproconazole 64.883 ppm alone
# From the text: The general protocol for preparing test compositions for Test F was as follows: Compound 32, Compound 64, azoxystrobin, benzovindiflupyr, bixafen, chlorothalonil, cyproconazole, epoxiconazole, fenpropidin, fenpropimorph, fluindapyr, flutriafol, fluxapyroxad, metominostrobin, picoxystrobin, prothioconazole, pydiflumetofen, pyraclostrobin, tebuconazole and trifloxystrobin were obtained as unformulated, technical-grade materials. Copper hydroxide and mancozeb was obtained as a formulated product marketed under the trademarks KOCIDE 3000 and MANZATE, respectively. Unformulated materials were first dissolved in acetone and then suspended at the desired concentration (in ppm) in acetone and purified water (50/50 mix by volume) containing 250 ppm of the surfactant Trem® 014 (polyhydric alcohol esters). Formulated materials were dispersed in sufficient water to give the desired concentration, and neither organic solvent nor surfactant was added to the suspension. The resulting test mixtures were then used in Test F. The tests were run on four individual plants and the results reported as the mean average of the four plants.
# The presence of a synergistic effect between two active ingredients was established with the aid of the Colby equation (see Colby, S. R. “Calculating Synergistic and Antagonistic Responses of Herbicide Combinations”, Weeds, (1967), 15, 20-22):
# Using the method of Colby, the presence of a synergistic interaction between two active ingredients is established by first calculating the predicted activity, p, of the mixture based on activities of the two components applied alone. If p is lower than the experimentally established effect, synergism has occurred. In the equation above, A is the fungicidal activity in percentage control of one component applied alone at rate x. The B term is the fungicidal activity in percentage control of the second component applied at rate y. The equation estimates p, the expected fungicidal activity of the mixture of A at rate x with B at rate y if their effects are strictly additive and no interaction has occurred.
# The test mixture was sprayed to the point of run-off on soybean seedlings. The following day the seedlings were inoculated with a spore suspension of Phakopsora pachyrhizi (the causal agent of Asian soybean rust) and incubated in a saturated atmosphere at 22° C. for 24 h and then moved to a growth chamber at 22° C. for 8 days, after which time visual disease ratings were made.
# Results for Test F are given in Tables B-1 through I-1 for Compound 32 and Tables B-2 through I-2 for Compound 64. Each table corresponds to a set of evaluations performed together at the same time. In each table, a rating of 100 indicates 100% disease control and a rating of 0 indicates no disease control (relative to the controls). Columns labeled “Obsd” indicate the average of results observed from test run on four individual plants. Columns labeled “Exp” indicate the expected value for each treatment mixture using the Colby equation.
# [6] = 10 ppm test suspension, wheat seedlings
# [7] = 10 ppm test suspension, soybean seedlings
# [8] = 50 ppm test suspension, 0 = no control
# [9] = Blumeria graminis, wheat seedlings
# [10] = Puccinia recondita, 50 ppm test suspension, wheat seedlings
# [11] = 10 ppm test suspension, 0 = no control
# [12] = Phakopsora pachyrhizi, Table E-2
structure (smiles),measurement,setting,value
CCS(=O)(=O)Cc1ccc(OCC(O)(O)C(F)(F)F)cc1 [compound 29],Test E disease control rating,[1]; wheat seedlings,79*** %
same,Test D disease control rating,[2]; wheat seedlings,0*** %
same,Test B disease control rating,[3]; [6],28%
same,Test A disease control rating,[4]; [7],84%
CCOC(=O)c1cnn(COc2cccc(OCC(O)(O)C(F)(F)F)c2)c1 [compound 320],pest or weed control at 250 ppm,"[1]; Blumeria graminis, 0 = no control",91%
same,pest or weed control at 250 ppm,[2]; 0 = no control,81%
same,pest or weed control at 10 ppm,"[3]; Puccinia recondita, 10 ppm test suspension, 0 = no control",68%
same,pest or weed control at 10 ppm,"[4]; Phakopsora pachyrhizi, 10 ppm test suspension, 0 = no control",89%
CCO/C(=C\Oc1ccc(Cn2cc(C(=O)OCC(=O)c3ccccc3)cn2)cc1)C(F)(F)F [compound 244],Test E disease control rating,[1]; wheat seedlings,0*** %
same,Test D disease control rating,[2]; wheat seedlings,0*** %
same,Test B disease control rating,[3]; [6],0%
same,Test A disease control rating,[4]; [7],100%
O=[N+]([O-])c1ccc(OCC(O)(O)C(F)(F)F)cc1 [compound 280],Test E disease control rating,[1]; 0 = no control,99*** %
same,Test D disease control rating,[2]; 0 = no control,99*** %
same,Test B disease control rating,[3]; [8],100%
same,Test A disease control rating,[4]; [8],100%
"CCOC(=O)c1cnn(Cc2ccc(OCC(O)(O)C(F)(F)F)cc2)c1 [Compound 1, ethyl 1-[[4-(3,3,3-trifluoro-2,2-dihydroxypropoxy)phenyl]methyl]-1H-pyrazole-4-carboxylate]",pest or weed control at 250 ppm,[1]; [9],81%
same,pest or weed control at 250 ppm,[2]; wheat seedlings,97%
same,pest or weed control at 250 ppm,"[3]; Puccinia recondita, 250 ppm test suspension, wheat seedlings",91%
CCOC(=O)c1cnn(Cc2ccc(O/C=C(\OCC)C(F)(F)F)c(I)c2)c1 [compound 374],Test E disease control rating,[1]; 0 = no control,76*** %
same,Test D disease control rating,[2]; 0 = no control,0*** %
same,Test B disease control rating,[3]; [8],0%
same,Test A disease control rating,[4]; [8],0%
CCOC(=O)c1cnn(Cc2ccc(OCC3(C(F)(F)F)OCCO3)cn2)c1 [compound 124],pest or weed control at 50 ppm,"[1]; Blumeria graminis, 50 ppm test suspension, wheat seedlings",98%
same,pest or weed control at 250 ppm,[2]; wheat seedlings,92%
same,pest or weed control at 50 ppm,[3]; [10],0%
"COC(=O)c1ccc(OCC(O)(O)C(F)(F)F)cc1 [Compound 229, methyl 4-(3,3,3-trifluoro-2,2-dihydroxypropoxy)phenylcarboxylate]",pest or weed control at 250 ppm,[1]; [9],99%
same,pest or weed control at 250 ppm,[2]; wheat seedlings,96%
same,pest or weed control at 50 ppm,[3]; [10],100%
CCOC(=O)c1cnn(Cc2ccc(N(C#N)CC(O)(O)C(F)(F)F)cc2)c1 [compound 381],Test E disease control rating,[1]; 0 = no control,69*** %
same,Test D disease control rating,[2]; 0 = no control,0*** %
same,Test B disease control rating,[3]; [11],28%
same,Test A disease control rating,[4]; [11],25%
CCOC(=O)c1cnn(Cc2ccc(OCC(O)(O)C(F)(F)F)c(Cl)c2)c1 [Compound 459],Test E disease control rating,[1]; 0 = no control,0*** %
same,Test D disease control rating,[2]; 0 = no control,37*** %
same,Test B disease control rating,[3]; [8],97%
same,Test A disease control rating,[4]; [8],100%
CC(=O)N1CC(c2ccc(OCC(O)(O)C(F)(F)F)cc2)C1 [compound 384],Test E disease control rating,[1]; 0 = no control,87*** %
same,Test D disease control rating,[2]; 0 = no control,48*** %
same,Test B disease control rating,[3]; [8],83%
same,Test A disease control rating,[4]; [8],99%
CCOC(=O)c1cnn(Cc2ccc(OCC(O)(O)C(F)(F)F)c(F)c2)c1 [Compound 264],Test E disease control rating,[1]; 0 = no control,96*** %
same,Test D disease control rating,[2]; 0 = no control,95*** %
same,Test B disease control rating,[3]; [11],80%
same,Test A disease control rating,[4]; [11],99%
CCOC(=COc1ccc(NC(=O)c2ccccc2F)cc1)C(F)(F)F [compound 461],Test E disease control rating,[1]; 0 = no control,69*** %
same,Test D disease control rating,[2]; 0 = no control,53*** %
same,Test B disease control rating,[3]; [8],0%
same,Test A disease control rating,[4]; [8],0%
CC(=O)N1CC(c2ccc(OCC3(C(F)(F)F)OCCO3)cc2)C1 [compound 372],Test E disease control rating,[1]; 0 = no control,99*** %
same,Test D disease control rating,[2]; 0 = no control,99*** %
same,Test B disease control rating,[3]; [8],28%
same,Test A disease control rating,[4]; [8],97%
Cn1cc(C(=O)Nc2ccc(F)cc2-c2ccc(Cl)c(Cl)c2)c(C(F)F)n1 [bixafen],Obsd disease control,"[5]; bixafen 11.327 ppm alone, Table C-1",54%
same,Obsd disease control,"[5]; bixafen 11.327 ppm alone, Table C-2",54%
same,Obsd disease control,"[5]; bixafen 19.525 ppm alone, Table C-1",55%
same,Obsd disease control,"[5]; bixafen 19.525 ppm alone, Table C-2",55%
CC(C1CC1)C(O)(Cn1cncn1)c1ccc(Cl)cc1 (stereo not shown) [cyproconazole],pest or weed control at 37.333 ppm,[5]; [12],44%
same,pest or weed control at 64.883 ppm,[5]; [12],68%
same,pest or weed control at 37.333 ppm,[5]; Table E-1,44%
same,pest or weed control at 64.883 ppm,[5]; Table E-1,68%
